Experiments:
SIK1 = target: T1, SIK1 (Homo sapiens, UniProt P57059); experiment: ADP-Glo kinase assay, SIK1; type: biochemical; settings: ADP-Glo SIK kinase assay
T1 construct: purchased Carna Biosciences 02-131
Procedure, shortened: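 Wells with 1% DMSO or 10 μM staurosporine (final) define the control window. The kinase reaction with substrate and ATP runs 120 min at RT, followed by ADP-Glo detection: ATP depletion (40 min) and ADP-derived luminescence (30 min).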

SIK2 = target: T2, SIK2 (Homo sapiens, UniProt Q9H0K1); experiment: ADP-Glo kinase assay, SIK2; type: biochemical; settings: ADP-Glo SIK kinase assay
T2 construct: purchased ThermoFisher Scientific PV4792
Procedure, shortened: (§1)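 Kinase reactions (enzyme-substrate mix plus ATP) ran 120 min at room temperature for each of SIK3 and SIK2. Signal came from ADP-Glo: unconsumed ATP removed (40 min), ADP reconverted and detected by luciferase/luciferin (30 min), with luminescence tracking kinase activity. 10 μM staurosporine and 1% DMSO (final) served as controls.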

SIK3 = target: T3, SIK3 (Homo sapiens, UniProt Q9Y2K2); experiment: ADP-Glo kinase assay, SIK3; type: biochemical; settings: ADP-Glo SIK kinase assay
T3 construct: purchased SignalChem S12-11G-100
Procedure, shortened: as §1

[1] = tested on: LPS triggered IL-10 secretion in monocyte-derived macrophages (MdM); experiment: MdM assay: LPS-triggered IL-10 (ELISA); type: cell-based, human; settings: LPS 200 ng/mL, supernatant after 2 h, maximal fold change vs LPS only
Protocol: SIK inhibition inhibits TNFα and increases IL-10 release in LPS triggered monocyte-derived macrophages (MdM) and dendritic […] al. 2012; Sundberg et al. 2014; Ozanne et al. 2015). This assay evaluates illustrative compounds of the invention for their inhibition of LPS-induced TNFα and LPS triggered IL-10 secretion in monocyte-derived macrophages. PBMCs are isolated from human blood samples (buffycoats). The buffy coat is aseptically transferred into a 50 mL Falcon tube, and diluted 1/2 in PBS. Falcon tubes are filled with 20 mL LymphoprepTM, on top of which 25 mL of the buffy coat is carefully added, tubes are centrifuged for 35 min at 400 g in temperature controlled centrifuge, without brake, at 25° C. PBMCs are aspirated from the white interface layer between sample and LymphoprepTM. PBMCs are washed five times in PBS. Cells are resuspended in RPMI 1640 complete medium supplemented with 10% FBS, 1% P/S, and cell density is determined using a hematologic analyzer (Sysmex XS-500i). PBMCs are centrifuged at 300×g for 10 min and resuspended at a density of 1.0*10^7 cells/80 μL Miltenyi buffer (PBS, pH 7.4, 1% FBS, 2 mM EDTA). Starting from this point of the protocol all steps are performed on ice. 20 μL of CD14+ micro-beads are added per 1.0*10^7 cells, the tube is mixed and incubated for 15 min in the fridge at 4° C. Cell suspension volume is adjusted to total volume of 100 mL using Miltenyi buffer, mixed gently and subsequently centrifuged for 10 min at 300×g. Supernantant is discarded and cell pellet is resuspended in 12 mL of Miltenyi buffer. Four LS columns are placed in the MACS Separator (magnet) from Miltenyi Biotec, and are prewet by rinsing with 3 mL of MACS buffer per column. Three mL of cell suspension is added onto the column (max 1*10^8 of labelled cells/column), and columns are subsequently washed 3 times with 3 mL of Miltenyi buffer. The columns are removed from the magnets, and 5 mL of Miltenyi buffer are added to the column to flush out the CD14+ fraction by pushing the plunger into the column. The flushed fractions are collected in a fresh 50 mL Falcon and volume is adjusted to 30 mL using Miltenyi buffer, cells are centrifuged for 10 min at 300×g. The obtained cell pellet is resuspended in 10 mL RPMI w/o FBS, and cell density is determined using a hematologic analyser (Sysmex XS-500i). 100 000 cells are seeded per well of a 96-well plate for differentiation to MdM in RPMI 1640 medium supplemented with 10% FBS, 1% P/S and 100 ng/mL rhM-CSF. On day 5 the medium is refreshed with 100 μL RPMI 1640 medium supplemented with 10% FBS, 1% P/S and 100 ng/mL rhM-CSF. On day 10, MdMs are triggered and compound is added. A compound dilution plate is made in 100% DMSO by 3-fold dilution of 10 mM stock solution. An intermediate dilution plate (10× final concentration) is made by diluting the compound dilution plate 50-fold in RPMI medium. Medium is carefully removed from cell plates using multichannel pipette, and replaced by 80 μL fresh medium. 10 μL of the 10× final concentration compound is added to the cells and incubated for 1 hour at 37° C. before addition of trigger. No trigger conditions/trigger conditions are spiked with equal final DMSO concentrations of 0.2% DMSO. 10 μL of 10×LPS (final conc. 200 ng/mL) solution are added to all wells except for the 'no trigger wells' where 10 μL medium is added. Supernatant is collected after 2 h (IL-10 determination) and after 20 h (TNFα determination) of LPS triggering. […]

T2 sequence (Q9H0K1 whole entry): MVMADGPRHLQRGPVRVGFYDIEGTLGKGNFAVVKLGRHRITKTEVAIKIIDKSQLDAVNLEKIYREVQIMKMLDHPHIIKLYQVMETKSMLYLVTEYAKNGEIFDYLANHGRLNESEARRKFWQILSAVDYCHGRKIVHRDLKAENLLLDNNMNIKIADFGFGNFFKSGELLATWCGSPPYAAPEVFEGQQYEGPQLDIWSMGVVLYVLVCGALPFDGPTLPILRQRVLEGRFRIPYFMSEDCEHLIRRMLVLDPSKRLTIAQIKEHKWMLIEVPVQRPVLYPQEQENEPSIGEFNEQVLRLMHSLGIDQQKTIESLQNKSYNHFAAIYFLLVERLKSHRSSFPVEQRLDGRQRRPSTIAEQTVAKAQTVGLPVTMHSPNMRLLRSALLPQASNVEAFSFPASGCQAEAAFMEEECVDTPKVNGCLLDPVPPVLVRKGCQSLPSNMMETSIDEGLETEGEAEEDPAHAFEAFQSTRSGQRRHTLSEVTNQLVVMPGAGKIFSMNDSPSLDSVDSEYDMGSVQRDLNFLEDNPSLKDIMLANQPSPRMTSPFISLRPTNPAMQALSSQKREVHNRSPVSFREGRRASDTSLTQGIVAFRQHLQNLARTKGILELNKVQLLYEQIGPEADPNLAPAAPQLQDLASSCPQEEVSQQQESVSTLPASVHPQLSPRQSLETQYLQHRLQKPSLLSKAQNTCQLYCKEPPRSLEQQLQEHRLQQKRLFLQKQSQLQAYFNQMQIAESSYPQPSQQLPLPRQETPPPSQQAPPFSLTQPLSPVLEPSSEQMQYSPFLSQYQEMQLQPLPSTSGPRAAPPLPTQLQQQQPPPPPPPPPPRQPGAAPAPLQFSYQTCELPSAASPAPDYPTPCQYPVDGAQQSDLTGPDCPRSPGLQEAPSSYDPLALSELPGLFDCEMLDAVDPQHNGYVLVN
T3 sequence (Q9Y2K2 whole entry): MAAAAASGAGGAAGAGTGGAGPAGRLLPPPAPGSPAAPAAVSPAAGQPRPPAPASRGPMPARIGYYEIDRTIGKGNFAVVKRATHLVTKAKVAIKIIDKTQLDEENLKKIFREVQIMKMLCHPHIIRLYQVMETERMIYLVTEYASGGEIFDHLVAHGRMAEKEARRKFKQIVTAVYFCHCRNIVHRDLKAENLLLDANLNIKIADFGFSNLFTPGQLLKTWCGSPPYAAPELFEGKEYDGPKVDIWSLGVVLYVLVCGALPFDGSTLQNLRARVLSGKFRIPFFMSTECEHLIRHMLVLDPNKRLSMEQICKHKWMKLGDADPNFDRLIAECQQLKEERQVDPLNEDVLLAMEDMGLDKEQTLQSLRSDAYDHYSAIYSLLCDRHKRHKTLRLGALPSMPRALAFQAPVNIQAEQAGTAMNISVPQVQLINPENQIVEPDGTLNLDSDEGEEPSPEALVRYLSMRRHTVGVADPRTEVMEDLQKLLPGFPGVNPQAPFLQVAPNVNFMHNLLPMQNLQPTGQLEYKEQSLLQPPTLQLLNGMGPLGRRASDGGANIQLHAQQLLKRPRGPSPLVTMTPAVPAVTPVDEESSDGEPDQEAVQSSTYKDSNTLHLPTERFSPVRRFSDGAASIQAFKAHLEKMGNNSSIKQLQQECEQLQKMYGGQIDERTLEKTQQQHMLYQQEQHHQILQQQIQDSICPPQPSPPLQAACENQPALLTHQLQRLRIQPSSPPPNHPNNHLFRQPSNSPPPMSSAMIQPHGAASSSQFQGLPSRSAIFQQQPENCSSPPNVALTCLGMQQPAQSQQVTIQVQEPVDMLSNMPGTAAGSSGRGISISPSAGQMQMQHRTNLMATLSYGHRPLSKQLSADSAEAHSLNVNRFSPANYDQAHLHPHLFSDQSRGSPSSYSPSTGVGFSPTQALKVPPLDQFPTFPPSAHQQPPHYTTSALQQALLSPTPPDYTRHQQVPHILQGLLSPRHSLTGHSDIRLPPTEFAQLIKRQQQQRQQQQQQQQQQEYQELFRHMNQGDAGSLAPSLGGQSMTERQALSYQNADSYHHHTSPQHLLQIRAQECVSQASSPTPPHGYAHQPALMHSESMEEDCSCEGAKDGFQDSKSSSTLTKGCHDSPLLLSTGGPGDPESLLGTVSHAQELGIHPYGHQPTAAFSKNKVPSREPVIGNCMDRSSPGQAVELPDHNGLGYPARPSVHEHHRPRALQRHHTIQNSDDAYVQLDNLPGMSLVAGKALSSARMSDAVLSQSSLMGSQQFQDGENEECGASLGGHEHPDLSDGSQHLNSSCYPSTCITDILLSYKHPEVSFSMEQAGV
T1 sequence (P57059 whole entry): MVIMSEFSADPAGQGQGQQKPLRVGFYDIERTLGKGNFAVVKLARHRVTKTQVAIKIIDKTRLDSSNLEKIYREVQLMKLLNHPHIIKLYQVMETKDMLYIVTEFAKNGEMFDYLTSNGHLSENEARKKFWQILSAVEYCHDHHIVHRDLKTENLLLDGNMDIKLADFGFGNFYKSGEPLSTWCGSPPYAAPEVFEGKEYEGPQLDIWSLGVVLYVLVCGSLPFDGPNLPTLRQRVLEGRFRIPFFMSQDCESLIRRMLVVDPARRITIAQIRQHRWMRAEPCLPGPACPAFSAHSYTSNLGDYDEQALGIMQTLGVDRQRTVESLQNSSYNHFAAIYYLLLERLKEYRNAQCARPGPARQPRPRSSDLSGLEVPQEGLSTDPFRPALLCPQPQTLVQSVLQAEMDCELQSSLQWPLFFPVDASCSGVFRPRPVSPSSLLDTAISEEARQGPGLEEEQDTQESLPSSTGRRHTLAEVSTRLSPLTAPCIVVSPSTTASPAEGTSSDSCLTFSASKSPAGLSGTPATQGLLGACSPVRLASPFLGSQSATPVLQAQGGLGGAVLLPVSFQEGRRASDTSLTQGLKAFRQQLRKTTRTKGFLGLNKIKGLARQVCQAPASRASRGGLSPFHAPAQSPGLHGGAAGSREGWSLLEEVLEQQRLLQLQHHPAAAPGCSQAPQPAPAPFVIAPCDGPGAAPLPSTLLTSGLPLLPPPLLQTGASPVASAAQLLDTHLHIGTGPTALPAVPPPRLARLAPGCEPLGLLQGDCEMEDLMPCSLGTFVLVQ

Compound	IC50 (SIK1) [nM]	IC50 (SIK2) [nM]	IC50 (SIK3) [nM]	IL-10 FCmax median [1]
CN(C)CCOc1ccn2c(-c3cc4c(c(OC(F)F)c3)C(=O)N(CC(F)F)CC4)cnc2c1 [Cpd 150, 2-(2,2-difluoroethyl)-8-(difluoromethoxy)-6-[7-[2-(dimethylamino)ethoxy]imidazo[1,2-a]pyridin-3-yl]-3,4-dihydroisoquinolin-1-one]	100 to 500	0.01 to 10	0.01 to 10	++ (>1.5-4.5)
COc1cc(-c2cnc3cc(OCCN(C)C)ccn23)cc2c1C(=O)N(CC(F)F)CC2 [compound 54, 2-(2,2-difluoroethyl)-6-[7-[2-(dimethylamino)ethoxy]imidazo [1,2-a]pyridin-3-yl]-8-methoxy-3,4-dihydro isoquinolin-1-one]	> 500	0.01 to 10	10 to 100	++ (>1.5-4.5)
COc1cc(-c2cnc3cc(OC[C@H]4CCCN4C)ccn23)cc2c1C(=O)N(CC(F)(F)F)CC2 [compound 124, 8-methoxy-6-[7-[[(2R)-1-methylpyrrolidin-2-yl]methoxy]imidazo[1,2-a]pyridin-3-yl]-2-(2,2,2-trifluoroethyl)-3,4-dihydroisoquinolin-1-one]	> 500	0.01 to 10	0.01 to 10	++ (>1.5-4.5)
COc1cc(-c2cnc3cc(OCCCN(C)C)ccn23)cc(OC(F)F)c1C(=O)NC1CC1 [Cpd 13]	10 to 100	0.01 to 10	0.01 to 10	++ (>1.5-4.5)
COc1cc(-c2cnc3cc(OCCN(C)C)ccn23)cc(OC(F)F)c1C(=O)NCC(F)(F)F [compound 166, 2-(difluoromethoxy)-4-[7-[2-(dimethylamino)ethoxy]imidazo[1,2-a]pyridin-3-yl]-6-methoxy-N-(2,2,2-trifluoroethyl)benzamide]	100 to 500	0.01 to 10	0.01 to 10	++ (>1.5-4.5)
COc1cc(-c2cnc3cc(OCCN)ccn23)cc(OC(F)F)c1C(=O)NC1CC1 [compound 118, 4-[7-(2-aminoethoxy)imidazo[1,2-a]pyridin-3-yl]-N-cyclopropyl-2-(difluoromethoxy)-6-methoxy-benzamide]	10 to 100	0.01 to 10	0.01 to 10	++ (>1.5-4.5)
CCN1CCCCC1COc1ccn2c(-c3cc(OC)c(C(=O)NC4CC4)c(OC(F)F)c3)cnc2c1 (centres unmarked) [compound 83, N-cyclopropyl-2-(difluoromethoxy)-4-[7-[(1-ethyl-2-piperidyl)methoxy]imidazo [1,2-a]pyridin-3-yl]-6-methoxy-benzamide]	100 to 500	0.01 to 10	0.01 to 10	++ (>1.5-4.5)
COc1cc(-c2cnc3cc(OCCN4CCOC[C@H]4C)ccn23)cc(OC(F)F)c1C(=O)NC1CC1 [compound 234, N-cyclopropyl-2-(difluoromethoxy)-6-methoxy-4-[7-[2-[(3R)-3-methylmorpholin-4-yl]ethoxy]imidazo[1,2-a]pyridin-3-yl]benzamide]	10 to 100	0.01 to 10	0.01 to 10	++ (>1.5-4.5)
COc1cc(-c2cnc3cc(OCCN4CCOC[C@@H]4C)ccn23)cc(OC(F)F)c1C(=O)NC1CC1 [compound 233, N-cyclopropyl-2-(difluoromethoxy)-6-methoxy-4-[7-[2-[(3S)-3-methylmorpholin-4-yl]ethoxy]imidazo[1,2-a]pyridin-3-yl]benzamide]	10 to 100	0.01 to 10	0.01 to 10	++ (>1.5-4.5)
CNc1cc(-c2cnc3cc(OCCN(C)C)ccn23)cc2c1C(=O)N(CC(F)(F)F)CC2 [compound 167, 6-[7-[2-(dimethylamino)ethoxy]imidazo[1,2-a]pyridin-3-yl]-8-(methylamino)-2-(2,2,2-trifluoroethyl)-3,4-dihydroisoquinolin-1-one]	> 500	0.01 to 10	10 to 100	+ (≤1.5)
COc1cc(-c2cnc3cc(OCCCN4CCCC(O)C4)ccn23)cc(OC(F)F)c1C(=O)NC1CC1 (centres unmarked) [compound 328, N-cyclopropyl-2-(difluoromethoxy)-4-[7-[3-(3-hydroxy-1-piperidyl)propoxy]imidazo [1,2-a]pyridin-3-yl]-6-methoxy-benzamide]	10 to 100	0.01 to 10	0.01 to 10	++ (>1.5-4.5)
COc1cc(-c2cnc3cc(OCCN4C[C@@H]5C[C@H]4CO5)ccn23)cc(OC(F)F)c1C(=O)NC1CC1 [compound 206, N-cyclopropyl-2-(difluoromethoxy)-6-methoxy-4-[7-[2-[(1S,4S)-2-oxa-5-azabicyclo[2.2.1]heptan-5-yl]ethoxy]imidazo[1,2-a]pyridin-3-yl]benzamide]	10 to 100	0.01 to 10	0.01 to 10	++ (>1.5-4.5)
COc1cc(-c2cnc3cc(OC[C@H]4CCCCN4C)ccn23)cc(OC(F)F)c1C(=O)NC1CC1 [compound 111, N-cyclopropyl-2-(difluoromethoxy)-6-methoxy-4-[7-[[(2R)-1-methyl-2-piperidyl]methoxy]imidazo[1,2-a]pyridin-3-yl]benzamide]	100 to 500	0.01 to 10	0.01 to 10	++ (>1.5-4.5)
CN(C)CCOc1ccn2c(-c3cc(OC(F)F)c(C(=O)NC4CC4)c(OC(F)F)c3)cnc2c1 [compound 156, N-cyclopropyl-2,6-bis(difluoromethoxy)-4-[7-[2-(dimethylamino)ethoxy]imidazo[1,2-a]pyridin-3-yl]benzamide]	10 to 100	0.01 to 10	0.01 to 10	++ (>1.5-4.5)
COc1cc(-c2cnc3cc(OCC4(C)CN(C)C4)ccn23)cc(OC(F)F)c1C(=O)NC1CC1 [compound 220, N-cyclopropyl-2-(difluoromethoxy)-4-[7-[(1,3-dimethylazetidin-3-yl)methoxy]imidazo[1,2-a]pyridin-3-yl]-6-methoxy-benzamide]	10 to 100	0.01 to 10	0.01 to 10	++ (>1.5-4.5)
CNCCOc1ccn2c(-c3cc(OC)c(C(=O)NC4CC4)c(OC(F)F)c3)cnc2c1 [compound 117, N-cyclopropyl-2-(difluoromethoxy)-6-methoxy-4-[7-[2-(methylamino)ethoxy]imidazo[1,2-a]pyridin-3-yl]benzamide]	10 to 100	0.01 to 10	0.01 to 10	++ (>1.5-4.5)
COc1cc(-c2cnc3cc(OCCN4CCOCC4)ccn23)cc2c1C(=O)N(CC(F)(F)F)CC2 [Cpd 88, 8-methoxy-6-[7-(2-morpholinoethoxy)imidazo [1,2-a]pyridin-3-yl]-2-(2,2,2-trifluoroethyl)-3,4-dihydroisoquinolin-1-one]				++ (>1.5-4.5)
